US6355799B1, “Substituted benzene compounds, process for their preparation, and herbicidal and defoliant compositions containing them” (ISK Americas Incorporated, priority 1997, dated 2002)

Experiments:
Format in all cases: in vivo
[1] = system: upland rice (Oryza sp., var. Tebonnet, RICE); assay: Post-emerge test, crop safety; conditions: phytotoxicity rating 0-100 (0 no damage, 100 complete death), 14 days after application
Method in brief: (§1)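 Compounds in acetone were track-sprayed at 15-1000 g ai/ha (187 l/ha) on sandy loam pots: pre-emerge one day after seeding, post-emerge at 2-3 leaf stage with 0.25% v/v non-ionic surfactant. Phytotoxicity was rated 14 days later on a 0 (no damage) to 100 (complete death) scale.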

[2] = system: field corn (Zea mays L., var. Dekalb 535, CORN); assay: Post-emerge test, crop safety; conditions: phytotoxicity rating 0-100 (0 no damage, 100 complete death), 14 days after application
Method in brief: as §1

[3] = system: green foxtail (Setaria viridis, SETVI); assay: Pre-emerge test, greenhouse herbicide activity screening; conditions: pre-emerge, rated 14 days after application, 0 = no damage, 100 = complete death
Method in brief: as §1

[4] = system: velvetleaf (Abutilon theophrasti, ABUTH); assay: as above; conditions: pre-emerge, rated 14 days after application, 0 = no damage, 100 = complete death
Method in brief: as §1

[5] = system: sicklepod (Cassia obtusifolia, CASOB); assay: as above; conditions: pre-emerge, rated 14 days after application, 0 = no damage, 100 = complete death
Method in brief: as §1

[6] = system: large crabgrass (Digitaria sanguinalis, DIGSA); assay: as above; conditions: pre-emerge, rated 14 days after application, 0 = no damage, 100 = complete death
Method in brief: as §1

[7] = system: barnyardgrass (Echinochloa crus-galli, ECHCG); assay: as above; conditions: pre-emerge, rated 14 days after application, 0 = no damage, 100 = complete death
Method in brief: as §1

[8] = system: ivyleaf morningglory (Ipomoea hederacea, IPOHE); assay: as above; conditions: pre-emerge, rated 14 days after application, 0 = no damage, 100 = complete death
Method in brief: as §1

[9] = system: johnsongrass (Sorghum halepense, SORHA); assay: as above; conditions: pre-emerge, rated 14 days after application, 0 = no damage, 100 = complete death
Method in brief: as §1

[10] = system: lambsquarters (Chenopodium album, CHEAL); assay: as above; conditions: pre-emerge, rated 14 days after application, 0 = no damage, 100 = complete death
Method in brief: as §1

[11] = system: redroot pigweed (Amaranthus retroflexus, AMARE); assay: as above; conditions: pre-emerge, rated 14 days after application, 0 = no damage, 100 = complete death
Method in brief: as §1

[12] = system: green foxtail (Setaria viridis, SETVI); assay: Post-emerge test, greenhouse herbicide activity screening; conditions: phytotoxicity rating 0-100 (0 no damage, 100 complete death), 14 days after application
Method in brief: (§2)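 Compounds in acetone were track-sprayed at 187 l/ha, 15–1000 g ai/ha, onto sandy loam pots. Pre-emerge seeds were sown one day before spraying, with surface watering afterwards. Post-emerge plants were at the 2–3 leaf stage and sprayed with 0.25% v/v non-ionic surfactant. Injury was rated 0–100 at 14 days.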

[13] = system: velvetleaf (Abutilon theophrasti, ABUTH); assay: as above; conditions: phytotoxicity rating 0-100 (0 no damage, 100 complete death), 14 days after application
Method in brief: as §2

[14] = system: sicklepod (Cassia obtusifolia, CASOB); assay: as above; conditions: phytotoxicity rating 0-100 (0 no damage, 100 complete death), 14 days after application
Method in brief: as §2

[15] = system: large crabgrass (Digitaria sanguinalis, DIGSA); assay: as above; conditions: phytotoxicity rating 0-100 (0 no damage, 100 complete death), 14 days after application
Method in brief: as §2

[16] = system: barnyardgrass (Echinochloa crus-galli, ECHCG); assay: as above; conditions: phytotoxicity rating 0-100 (0 no damage, 100 complete death), 14 days after application
Method in brief: as §2

[17] = system: ivyleaf morningglory (Ipomoea hederacea, IPOHE); assay: as above; conditions: phytotoxicity rating 0-100 (0 no damage, 100 complete death), 14 days after application
Method in brief: as §2

[18] = system: redroot pigweed (Amaranthus retroflexus, AMARE); assay: as above; conditions: phytotoxicity rating 0-100 (0 no damage, 100 complete death), 14 days after application
Method in brief: as §2

[19] = system: common ragweed (Ambrosia artemisizfolia L., AMBEL); assay: as above; conditions: phytotoxicity rating 0-100 (0 no damage, 100 complete death), 14 days after application
Method in brief: as §2

[20] = system: johnsongrass (Sorghum halepense, SORHA); assay: as above; conditions: phytotoxicity rating 0-100 (0 no damage, 100 complete death), 14 days after application
Method in brief: as §2

[21] = system: lambsquarters (Chenopodium album, CHEAL); assay: as above; conditions: phytotoxicity rating 0-100 (0 no damage, 100 complete death), 14 days after application
Method in brief: as §2

[22] = system: upland rice (Oryza sp., var. Tebonnet, RICE); assay: Pre-emerge test, crop safety; conditions: pre-emerge, rated 14 days after application, 0 = no damage, 100 = complete death
Method in brief: (§3)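 Sandy loam pots; pre-emerge: sown 1 d pre-spray, surface-watered after, then bottom-watered. Post-emerge: sown 8–21 d before, 2–3 leaf stage, + 0.25% v/v NIS, bottom-watered. Acetone, 187 l/ha track spray, 15–1000 g ai/ha. 0–100 injury score, day 14.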

[23] = system: field corn (Zea mays L., var. Dekalb 535, CORN); assay: Pre-emerge test, crop safety; conditions: pre-emerge, rated 14 days after application, 0 = no damage, 100 = complete death
Method in brief: as §3

With `COc1c(Cl)cc(F)c(-n2c(=O)cc(C(F)(F)F)n(C)c2=O)c1N=CN(C)C` [Compound 1-31, 3-[4-chloro-2-(dimethylaminomethynyl)imino-6-fluoro-3-methoxyphenyl]-1-methyl-6-trifluoromethyl-2,4(1H, 3H)-pyrimidinedione] the “Post-emerge Herbicidal Activity RICE (crop damage)” value ([1]; 63 g ai/ha) was 0, the “Post-emerge Herbicidal Activity RICE (crop damage)” value ([1]; 250 g ai/ha) was 10 and the “Post-emerge Herbicidal Activity CORN (crop damage)” value ([2]; 63 g ai/ha) was 0. For the same molecule, the “Post-emerge Herbicidal Activity CORN (crop damage)” value ([2]; 250 g ai/ha) was 0, the “Pre-emerge Herbicidal Activity SETVI (phytotoxicity rating, scale 0-100)” value ([3]; 63 g ai/ha) was 50 and the “Pre-emerge Herbicidal Activity SETVI (phytotoxicity rating, scale 0-100)” value ([3]; 250 g ai/ha) was 100. For the same molecule, the “Pre-emerge Herbicidal Activity ABUTH (phytotoxicity rating, scale 0-100)” value ([4]; 63 g ai/ha) was 100, the “Pre-emerge Herbicidal Activity ABUTH (phytotoxicity rating, scale 0-100)” value ([4]; 250 g ai/ha) was 100 and the “Pre-emerge Herbicidal Activity CASOB (phytotoxicity rating, scale 0-100)” value ([5]; 63 g ai/ha) was 70. For the same molecule, the “Pre-emerge Herbicidal Activity CASOB (phytotoxicity rating, scale 0-100)” value ([5]; 250 g ai/ha) was 95, the “Pre-emerge Herbicidal Activity DIGSA (phytotoxicity rating, scale 0-100)” value ([6]; 63 g ai/ha) was 0 and the “Pre-emerge Herbicidal Activity DIGSA (phytotoxicity rating, scale 0-100)” value ([6]; 250 g ai/ha) was 90. The “Pre-emerge Herbicidal Activity ECHCG (phytotoxicity rating, scale 0-100)” value ([7]; 63 g ai/ha) was 0, the “Pre-emerge Herbicidal Activity ECHCG (phytotoxicity rating, scale 0-100)” value ([7]; 250 g ai/ha) was 40 and the “Pre-emerge Herbicidal Activity IPOHE (phytotoxicity rating, scale 0-100)” value ([8]; 63 g ai/ha) was 0. The “Pre-emerge Herbicidal Activity IPOHE (phytotoxicity rating, scale 0-100)” value ([8]; 250 g ai/ha) was 80, the “Pre-emerge Herbicidal Activity SORHA (phytotoxicity rating, scale 0-100)” value ([9]; 63 g ai/ha) was 0 and the “Pre-emerge Herbicidal Activity SORHA (phytotoxicity rating, scale 0-100)” value ([9]; 250 g ai/ha) was 90. The “Pre-emerge Herbicidal Activity CHEAL (phytotoxicity rating, scale 0-100)” value ([10]; 63 g ai/ha) was 95, the “Pre-emerge Herbicidal Activity CHEAL (phytotoxicity rating, scale 0-100)” value ([10]; 250 g ai/ha) was 100 and the “Pre-emerge Herbicidal Activity AMARE (phytotoxicity rating, scale 0-100)” value ([11]; 63 g ai/ha) was 80. For the same molecule, the “Pre-emerge Herbicidal Activity AMARE (phytotoxicity rating, scale 0-100)” value ([11]; 250 g ai/ha) was 100, the “Post-emerge Herbicidal Activity SETVI” value ([12]; 63 g ai/ha) was 0 and the “Post-emerge Herbicidal Activity SETVI” value ([12]; 250 g ai/ha) was 0. For the same molecule, the “Post-emerge Herbicidal Activity ABUTH” value ([13]; 63 g ai/ha) was 20, the “Post-emerge Herbicidal Activity ABUTH” value ([13]; 250 g ai/ha) was 50 and the “Post-emerge Herbicidal Activity CASOB” value ([14]; 63 g ai/ha) was 0. The “Post-emerge Herbicidal Activity CASOB” value ([14]; 250 g ai/ha) was 0, the “Post-emerge Herbicidal Activity DIGSA” value ([15]; 63 g ai/ha) was 0 and the “Post-emerge Herbicidal Activity DIGSA” value ([15]; 250 g ai/ha) was 0. For the same molecule, the “Post-emerge Herbicidal Activity ECHCG” value ([16]; 63 g ai/ha) was 0, the “Post-emerge Herbicidal Activity ECHCG” value ([16]; 250 g ai/ha) was 0 and the “Post-emerge Herbicidal Activity IPOHE” value ([17]; 63 g ai/ha) was 10. The “Post-emerge Herbicidal Activity IPOHE” value ([17]; 250 g ai/ha) was 50, the “Post-emerge Herbicidal Activity AMARE” value ([18]; 63 g ai/ha) was 10 and the “Post-emerge Herbicidal Activity AMARE” value ([18]; 250 g ai/ha) was 30. For the same molecule, the “Post-emerge Herbicidal Activity AMBEL” value ([19]; 63 g ai/ha) was 0, the “Post-emerge Herbicidal Activity AMBEL” value ([19]; 250 g ai/ha) was 0 and the “Post-emerge Herbicidal Activity SORHA” value ([20]; 63 g ai/ha) was 0. The “Post-emerge Herbicidal Activity SORHA” value ([20]; 250 g ai/ha) was 0, the “Post-emerge Herbicidal Activity CHEAL” value ([21]; 63 g ai/ha) was 0 and the “Post-emerge Herbicidal Activity CHEAL” value ([21]; 250 g ai/ha) was 40. The “Pre-emerge crop damage RICE (phytotoxicity rating, scale 0-100)” value ([22]; 63 g ai/ha) was 0, the “Pre-emerge crop damage RICE (phytotoxicity rating, scale 0-100)” value ([22]; 250 g ai/ha) was 10 and the “Pre-emerge crop damage CORN (phytotoxicity rating, scale 0-100)” value ([23]; 63 g ai/ha) was 0. The “Pre-emerge crop damage CORN (phytotoxicity rating, scale 0-100)” value ([23]; 250 g ai/ha) was 50.
